# Test results taken from ChEMBL document CHEMBL4219126, “Synthesis and biological evaluation of benzocyclobutane-C-glycosides as potent and orally active SGLT1/SGLT2 dual inhibitors” (Bioorg Med Chem Lett, 2018).
# Active and inactive are the calls of the source. The rule behind the calls is not given here.
# Tests used:
# [1] = biological target: T1, Sodium/glucose cotransporter 2 (Homo sapiens) (UniProt P31639); assay: Inhibition of human kidney SGLT2 expressed in CHOK1 cells assessed as decrease in [14C]-AMG uptake at 30 nM preincubated for 10 mins followed by [14C]-AMG addition and measured after 2 hrs by TopCount method relative to control; type: cell-based
# T1 sequence (whole entry): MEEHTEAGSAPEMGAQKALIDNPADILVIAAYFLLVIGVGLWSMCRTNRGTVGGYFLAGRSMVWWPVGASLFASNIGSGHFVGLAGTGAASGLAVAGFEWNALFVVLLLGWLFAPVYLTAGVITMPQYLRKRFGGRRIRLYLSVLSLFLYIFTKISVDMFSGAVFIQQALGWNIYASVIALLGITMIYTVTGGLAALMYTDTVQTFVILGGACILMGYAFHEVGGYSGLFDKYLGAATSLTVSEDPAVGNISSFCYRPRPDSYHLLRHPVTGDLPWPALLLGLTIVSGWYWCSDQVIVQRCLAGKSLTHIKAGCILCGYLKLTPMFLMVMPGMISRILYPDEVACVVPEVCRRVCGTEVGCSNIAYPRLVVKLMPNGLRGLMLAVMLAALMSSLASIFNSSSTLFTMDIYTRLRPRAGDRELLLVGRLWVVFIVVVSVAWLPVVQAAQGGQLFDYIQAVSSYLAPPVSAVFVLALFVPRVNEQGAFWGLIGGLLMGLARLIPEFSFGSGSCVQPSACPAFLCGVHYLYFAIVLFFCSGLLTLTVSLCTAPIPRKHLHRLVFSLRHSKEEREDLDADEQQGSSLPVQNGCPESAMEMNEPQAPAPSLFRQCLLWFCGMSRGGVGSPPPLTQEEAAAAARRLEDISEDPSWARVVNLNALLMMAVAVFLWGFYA
# [2] = biological target: T2, Sodium/glucose cotransporter 1 (Homo sapiens) (UniProt P13866); assay: Inhibition of human small intestinal SGLT1 expressed in CHOK1 cells assessed as decrease in [14C]-AMG uptake at 300 nM preincubated for 10 mins followed by [14C]-AMG addition and measured after 2 hrs by TopCount method relative to control; type: cell-based
# T2 sequence (whole entry): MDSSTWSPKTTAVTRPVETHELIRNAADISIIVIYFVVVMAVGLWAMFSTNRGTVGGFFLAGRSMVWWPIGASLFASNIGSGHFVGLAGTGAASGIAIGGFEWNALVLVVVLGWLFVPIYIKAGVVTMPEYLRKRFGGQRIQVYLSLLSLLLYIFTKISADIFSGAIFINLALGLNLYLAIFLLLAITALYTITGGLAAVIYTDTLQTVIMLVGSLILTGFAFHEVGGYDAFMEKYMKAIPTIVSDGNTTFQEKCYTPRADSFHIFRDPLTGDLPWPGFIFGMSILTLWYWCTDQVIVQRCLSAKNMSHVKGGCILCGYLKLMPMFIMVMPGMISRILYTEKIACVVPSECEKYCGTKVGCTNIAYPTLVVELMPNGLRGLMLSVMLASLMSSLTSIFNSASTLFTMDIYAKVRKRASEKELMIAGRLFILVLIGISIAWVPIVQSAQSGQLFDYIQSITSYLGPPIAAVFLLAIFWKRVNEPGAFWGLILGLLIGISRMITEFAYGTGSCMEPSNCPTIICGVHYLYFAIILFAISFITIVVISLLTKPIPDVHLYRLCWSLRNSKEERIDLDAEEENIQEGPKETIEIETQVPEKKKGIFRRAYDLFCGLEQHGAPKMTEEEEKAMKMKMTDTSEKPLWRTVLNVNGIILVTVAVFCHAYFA
# [3] = Cmax in mouse at 5 mg/kg, iv; type: ADME, organism-based; design: dose 5 mg/kg, route intravenous; conditions: in vivo
# [4] = Cmax in dog at 2 mg/kg, iv; type: ADME, organism-based, Canis lupus familiaris; design: dose 2 mg/kg, route intravenous; conditions: in vivo
# [5] = Terminal half life in monkey at 10 mg/kg administered via oral gavage; type: ADME, organism-based, Macaca mulatta; conditions: rhesus monkey, in vivo, read-out: beta t1/2 (converted)
# [6] = AUC (infinity) in rat at 10 mg/kg administered via oral gavage; type: ADME, organism-based; design: dose 10 mg/kg, route oral, time infinity; conditions: in vivo
# [7] = Systemic clearance in rat at 2 mg/kg, iv; type: ADME, organism-based; conditions: in vivo
# [8] = Terminal half life in rat at 2 mg/kg, iv; type: ADME, organism-based; conditions: in vivo, read-out: beta t1/2 (converted)
# [9] = AUC (infinity) in monkey at 10 mg/kg administered via oral gavage; type: ADME, organism-based, Macaca mulatta; design: dose 10 mg/kg, time infinity, route oral; conditions: rhesus monkey, in vivo
# [10] = AUC (infinity) in dog at 10 mg/kg administered via oral gavage; type: ADME, organism-based, Canis lupus familiaris; design: dose 10 mg/kg, route oral, time infinity; conditions: in vivo
# [11] = Cmax in monkey at 10 mg/kg administered via oral gavage; type: ADME, organism-based, Macaca mulatta; design: dose 10 mg/kg, route oral; conditions: rhesus monkey, in vivo
# [12] = Terminal half life in dog at 2 mg/kg, iv; type: ADME, organism-based, Canis lupus familiaris; conditions: in vivo, read-out: beta t1/2 (converted)
# [13] = AUC (infinity) in dog at 2 mg/kg, iv; type: ADME, organism-based, Canis lupus familiaris; design: dose 2 mg/kg, time infinity, route intravenous; conditions: in vivo
# [14] = Oral bioavailability in dog at 10 mg/kg; type: ADME, organism-based, Canis lupus familiaris; conditions: in vivo
# [15] = Cmax in dog at 10 mg/kg administered via oral gavage; type: ADME, organism-based, Canis lupus familiaris; design: dose 10 mg/kg, route oral; conditions: in vivo
# Rattus norvegicus [16] = assay: Antidiabetic activity in Sprague-Dawley rat assessed as decrease in postprandial blood glucose level administered 1 hr prior to glucose challenge measured up to 120 mins by OGTT; type: functional, organism-based
# [17] = Volume of distribution at steady state in rat at 2 mg/kg, iv; type: ADME, organism-based; conditions: in vivo, read-out: Vdss
# [18] = Volume of distribution at steady state in dog at 2 mg/kg, iv; type: ADME, organism-based, Canis lupus familiaris; conditions: in vivo, read-out: Vdss
# [19] = Cmax in mouse at 20 mg/kg administered via oral gavage; type: ADME, organism-based; design: dose 20 mg/kg, route oral; conditions: in vivo
# [20] = Terminal half life in rat at 10 mg/kg administered via oral gavage; type: ADME, organism-based; conditions: in vivo, read-out: beta t1/2 (converted)
# [21] = Volume of distribution at steady state in mouse at 5 mg/kg, iv; type: ADME, organism-based; conditions: in vivo, read-out: Vdss
# [22] = Cmax in rat at 10 mg/kg administered via oral gavage; type: ADME, organism-based; design: dose 10 mg/kg, route oral; conditions: in vivo
# [23] = Oral bioavailability in monkey at 10 mg/kg; type: ADME, organism-based, Macaca mulatta; conditions: rhesus monkey, in vivo
# [24] = Cmax in monkey at 2 mg/kg, iv; type: ADME, organism-based, Macaca mulatta; design: dose 2 mg/kg, route intravenous; conditions: rhesus monkey, in vivo
# [25] = AUC (infinity) in rat at 2 mg/kg, iv; type: ADME, organism-based; design: dose 2 mg/kg, time infinity, route intravenous; conditions: in vivo
# Rattus norvegicus [26] = assay: Antihyperglycemic activity in diabetic ZDF rat assessed as decrease in fed blood glucose levels at 10 mg/kg measured up to 24 hrs; type: functional, organism-based
# [27] = AUC (infinity) in mouse at 20 mg/kg administered via oral gavage; type: ADME, organism-based; design: dose 20 mg/kg, route oral, time infinity; conditions: in vivo
# [28] = Cmax in rat at 2 mg/kg, iv; type: ADME, organism-based; design: dose 2 mg/kg, route intravenous; conditions: in vivo
# [29] = Terminal half life in mouse at 20 mg/kg administered via oral gavage; type: ADME, organism-based; conditions: in vivo, read-out: beta t1/2 (converted)
# [30] = AUC (infinity) in monkey at 2 mg/kg, iv; type: ADME, organism-based, Macaca mulatta; design: dose 2 mg/kg, route intravenous, time infinity; conditions: rhesus monkey, in vivo
# [31] = AUC (infinity) in mouse at 5 mg/kg, iv; type: ADME, organism-based; design: dose 5 mg/kg, time infinity, route intravenous; conditions: in vivo
# [32] = Terminal half life in mouse at 5 mg/kg, iv; type: ADME, organism-based; conditions: in vivo, read-out: beta t1/2 (converted)
# [33] = Systemic clearance in mouse at 5 mg/kg, iv; type: ADME, organism-based; conditions: in vivo
# [34] = Systemic clearance in monkey at 2 mg/kg, iv; type: ADME, organism-based, Macaca mulatta; conditions: rhesus monkey, in vivo
# [35] = Oral bioavailability in rat at 10 mg/kg; type: ADME, organism-based; conditions: in vivo
# [36] = Terminal half life in monkey at 2 mg/kg, iv; type: ADME, organism-based, Macaca mulatta; conditions: rhesus monkey, in vivo, read-out: beta t1/2 (converted)
# [37] = Terminal half life in dog at 10 mg/kg administered via oral gavage; type: ADME, organism-based, Canis lupus familiaris; conditions: in vivo, read-out: beta t1/2 (converted)
# [38] = Volume of distribution at steady state in monkey at 2 mg/kg, iv; type: ADME, organism-based, Macaca mulatta; conditions: rhesus monkey, in vivo, read-out: Vdss
# [39] = Systemic clearance in dog at 2 mg/kg, iv; type: ADME, organism-based, Canis lupus familiaris; conditions: in vivo
# [40] = Oral bioavailability in mouse at 20 mg/kg; type: ADME, organism-based; conditions: in vivo
# Rattus norvegicus [41] = assay: Antidiabetic activity in Sprague-Dawley rat assessed as decrease in plasma glucose AUC (0 to 120 mins) administered 1 hr prior to U13C6-glucose challenge by OGTT; type: functional, organism-based
# Rattus norvegicus [42] = assay: Antidiabetic activity in Sprague-Dawley rat assessed as increase in urinary glucose excrection administered 1 hr prior to U13C6-glucose challenge measured up to 4 hrs by OGTT; type: functional, organism-based
inhibition [1],inhibition [2],Cmax [3],AUC(0-inf) [6],clearance [7],half-life [8],Vd [17],Cmax [19],half-life [20],Vd [21],Cmax [22],AUC(0-inf) [25],AUC(0-inf) [27],Cmax [28],half-life [29],AUC(0-inf) [31],half-life [32],clearance [33],bioavailability [35],bioavailability [40],Structure (SMILES),further results
31%,67%,–,–,–,–,–,–,–,–,–,–,–,–,–,–,–,–,–,–,COc1cc(C2CC2)c(Cc2ccc3c(c2)CC3)cc1[C@@H]1O[C@H](CO)[C@@H](O)[C@H](O)[C@H]1O,–
–,–,8200 ng/mL,1790 ng·h/mL,47.8 mL/min/kg,1.27 h,2.18 L/kg,4760 ng/mL,2.22 h,1.06 L/kg,717 ng/mL,697 ng·h/mL,11500 ng·h/mL,2110 ng/mL,2.68 h,4560 ng·h/mL,1.25 h,18.3 mL/min/kg,49%,62.8%,Cc1cc(O)c([C@@H]2O[C@H](CO)[C@@H](O)[C@H](O)[C@H]2O)cc1Cc1ccc2c(c1)CC2,Activity (Rattus norvegicus [41]): Dose-dependent effect; Activity (Rattus norvegicus [42]): Dose-dependent effect

# The next lines start with the molecule.
Structure (SMILES),inhibition [1],inhibition [2],Cmax [3],AUC(0-inf) [6],clearance [7],half-life [8],Vd [17],Cmax [19],half-life [20],Vd [21],Cmax [22],AUC(0-inf) [25],AUC(0-inf) [27],Cmax [28],half-life [29],AUC(0-inf) [31],half-life [32],clearance [33],bioavailability [35],bioavailability [40],further results
N#Cc1ccc([C@@H]2O[C@H](CO)[C@@H](O)[C@H](O)[C@H]2O)cc1Cc1ccc2c(c1)CC2,43%,0%,–,–,–,–,–,–,–,–,–,–,–,–,–,–,–,–,–,–,–
OC[C@H]1O[C@@H](c2cccc(Cc3ccc4c(c3)CC4)c2)[C@H](O)[C@@H](O)[C@@H]1O,23%,5%,–,–,–,–,–,–,–,–,–,–,–,–,–,–,–,–,–,–,–
CN(C)c1ccc([C@@H]2O[C@H](CO)[C@@H](O)[C@H](O)[C@H]2O)cc1Cc1ccc2c(c1)CC2,35%,67%,–,–,–,–,–,–,–,–,–,–,–,–,–,–,–,–,–,–,–
OC[C@H]1O[C@@H](c2ccc(Cl)c(Cc3ccc4c(c3)CC4)c2)[C@H](O)[C@@H](O)[C@@H]1O,–,–,5870 ng/mL,2650 ng·h/mL,48.3 mL/min/kg,2.17 h,4.01 L/kg,5680 ng/mL,2.48 h,2.19 L/kg,634 ng/mL,697 ng·h/mL,25500 ng·h/mL,1110 ng/mL,3.29 h,6390 ng·h/mL,2.42 h,13 mL/min/kg,78%,99%,Cmax [4]: 9600 ng/mL; half-life [5]: 4.45 h; AUC(0-inf) [9]: 40500 ng·h/mL; AUC(0-inf) [10]: 332000 ng·h/mL; Cmax [11]: 7180 ng/mL; half-life [12]: 7.93 h; AUC(0-inf) [13]: 50800 ng·h/mL; bioavailability [14]: 107%; Cmax [15]: 20100 ng/mL; Activity (Rattus norvegicus [16]): Active; Vd [18]: 0.4 L/kg; bioavailability [23]: 88%; Cmax [24]: 9110 ng/mL; Activity (Rattus norvegicus [26]): Active; AUC(0-inf) [30]: 9210 ng·h/mL; clearance [34]: 3.74 mL/min/kg; half-life [36]: 4.71 h; half-life [37]: 12.8 h; Vd [38]: 0.91 L/kg; clearance [39]: 0.68 mL/min/kg
